The values below come from US9834541B2, “2-aminopyridine compounds” (Merck Patent GmbH, priority 2012, dated 2017).

SMILES strings stand for the structures.

The test system of one data set is Wnt pathway. The data set can be described thus: Cellular assay for Wnt pathway activity, LS174T-shl-fLuc clone 5 (LS174T-L5) luciferase reporter assay. In kind it is cell-based. The settings on record: Homo sapiens; LS174T TCF luciferase reporter cells, 24 hours incubation. The text has this: 1. Cellular Assay for Wnt Pathway Activity LS174T-shl-fLuc Clone 5 (LS174T-L5) Reporter Assay Principle:
This assay is based on an in-vitro luciferase activity readout. The human colon cancer cell line, LS174T was transduced with a lentivirus encoding a short half-life luciferase (with a destabilised PEST sequence construct; construct F1756): 16×TCF/LEF transcription sites—short half life firefly luciferase on a basal pTA promoter—puromycin resistance gene on an EF-1-α promoter). This construct was made using the lentiviral base vector: pCDF1-MCS2-EF1-Puro from System Biosciences (cat. # CD110B-1). The luciferase has a T1/2 of about 60 minutes.
Stable luciferase-expressing clones were selected, using 1 μg/mL puromycin selection and the clones were bulked up.
Compounds that inhibit the Wnt pathway are predicted to inhibit the induction of luciferase transcription by TCF; this will result in reduced luciferase protein production and luciferase signal readout.
Compounds were tested for their Wnt pathway inhibitory activities using the described firefly luciferase reporter cell based assay. An LS174T luciferase reporter cell line was used which contained a T-Cell Factor (TCF) dependent gene promoter firefly luciferase construct.
Compounds, in concentrations from 30 μM to 1 nM, were incubated for 24 hours on the cells. Luciferase activities were determined using the Steady Glo Luciferase Assay System (Promega) and the TOPCOUNT microplate reader (Perkin Elmer). For analysis, the obtained data were normalized against the untreated vehicle control and fitted for determination of the IC50 values using the Excel Fit application of the Excel Software (Microsoft).
A general note: A reporter such as luciferase makes a cellular process visible.

Data set [1] is described as follows: CLint (intrinsic clearance) assay, liver microsomal incubation. In kind it is in vitro ADME, human. To be noted: liver microsomes, pH 7.4; human hepatic microsomes, 0.5 mg/mL protein, class symbols. The procedure:
Also shown is the human hepatic microsomal intrinsic clearance (CLint), whereby the following classification is used:
2. CLint (Intrinsic Clearance) Assay
A Tecan Genesis workstation (RWS ASY 150/8) was used to perform the microsomal incubations. Analysis was carried out using a Waters ACQUITY UPLC system coupled to an ABSciex API3000 mass spectrometer. Data analysis was performed using Assay Explorer (Symyx).
Column: Acquity UPLC BEH C18, 2.1×50 mm, 1.7 um (Waters)
Mobile phases: • A=0.1% formic acid in water • B=acetonitrile
Column temperature: 50° C.
0.1 M potassium phosphate buffer pH 7.4 containing 1 mM MgCl2
15 mM NADPH in phosphate buffer
5.0 mg protein/mL liver microsomes in phosphate buffer
Each experiment consists of 12 test and 2 reference compounds. The reference compounds are incubated as a cocktail.
Dilution of test compounds was done in 2 steps from a 10 mM DMSO stock solution. First 4 μL stock solution was added to 196 μL of 20% DMSO in potassium phosphate buffer pH 7.4. In a second step 10 μL of the first dilution were added to 1890 μL potassium phosphate buffer and 100 μL internal standard solution to a final concentration of […].
100 μL of the final compound dilution were aliquoted into a 96 deep well plate. 12.5 μL liver microsomes were added to each well (0.5 mg/mL final protein concentration) and the samples preincubated for 5 min at 37° C. and 800 rpm agitation.
After the preincubation, 250 μL cold acetonitrile were added to the 0 min samples to prevent a reaction. Following this, 12.5 μL NADPH solution were added to all wells to start the incubation, with the exception of the 0 min and 30 min controls without cofactor, where the NADPH was substituted for phosphate buffer.
The incubations were stopped after 5, 10, 20 and 30 min by adding 250 μL cold acetonitrile to the individual wells.
The quenched samples were then centrifuged at 4000 g for 1 h at 4° C. 100 μL of the supernatant were transferred into 96 well plates for analysis.
The metabolic stability of each compound was determined by measurement of the change in LC-MS/MS peak area over time. Assay Explorer software was used to automatically calculate the slope k of the decline. The intrinsic clearance (CLint) of each compound was then calculated according to the formula: CLint(μL/min/mg protein)=k1000/protein concentration.
(In general: Liver microsomes are a subcellular fraction often used to study metabolism.)

The term IC50 denotes the concentration needed to halve the response being measured. One may read the microsomal CLint as a measure of how fast metabolising enzymes remove a compound, apart from limits set by blood flow. Take `Cn1ncc2cc(-c3cnc(N)c(C(F)(F)F)c3N3CCC4(CCNC4=O)CC3)ccc21` [Compound 39, 8-(2-Amino-5-(1-methyl-1H-indazol-5-yl)-3-(trifluoromethyl)pyridin-4-yl)-2,8-diazaspiro[4.5]decan-1-one]: the IC50 in the data set on Wnt pathway was found to be 0.035 µM. The microsomal CLint at 0.8 μM in data set [1] lay within 50 to 100 µL/min/mg.

`Cn1cc(-c2ccc(-c3cnc(N)c(Cl)c3N3CCC4(CC3)NCCNC4=O)cc2)cn1` [Compound 40, 9-(2-Amino-3-chloro-5-(4-(1-methyl-1H-pyrazol-4-yl)phenyl)pyridin-4-yl)-1,4,9-triazaspiro[5.5]undecan-5-one] yielded an IC50 in the data set with Wnt pathway of 0.1 µM. Further, the microsomal CLint at 0.8 μM in data set [1] was in the range of 10 to 50 µL/min/mg.

In the case of `Cn1cc(-c2ccc(-c3cnc(N)c(C(F)(F)F)c3N3CCC4(CC3)CNC(=O)O4)cc2)cn1` [Compound 41, 8-{2-Amino-5-[4-(1-methyl-1H-pyrazol-4-yl)-phenyl]-3-trifluoromethyl-pyridin-4-yl}-1-oxa-3,8-diaza-spiro[4.5] decan-2-one], in the data set on Wnt pathway, 0.075 µM corresponded to half-maximal inhibition (IC50). For the same molecule, the microsomal CLint at 0.8 μM in data set [1] was below 10 µL/min/mg.

`CN1c2ccc(-c3cnc(N)c(C(F)(F)F)c3N3CCC4(CC3)CNC(=O)O4)cc2CS1(=O)=O` [Compound 42, 8-[2-Amino-5-(1-methyl-2,2-dioxo-2,3-dihydro-1H-2I6-benzo[c]isothiazol-5-yl)-3-trifluoro-methyl-pyridin-4-yl]-1-oxa-3,8-diaza-spiro[4.5] decan-2-one] gave a half-inhibitory concentration (IC50) with Wnt pathway of 0.011 µM. For the same molecule, the microsomal CLint at 0.8 μM in data set [1] lay within 10 to 50 µL/min/mg.

In the data set on Wnt pathway, `Cn1cc(-c2ccc(-c3cnc(N)c(C(F)(F)F)c3N3CCC4(CCNC4=O)CC3)cc2)cn1` [Compound 43, 8-{2-Amino-5-[4-(1-methyl-1H-pyrazol-4-yl)-phenyl]-3-trifluoromethyl-pyridin-4-yl}-2,8-diaza-spiro[4.5] decan-1-one] showed an IC50 of 0.046 µM. The microsomal CLint at 0.8 μM in data set [1] lay within 10 to 50 µL/min/mg.

Take `Nc1ncc(-c2ccc3c(N)n[nH]c3c2)c(N2CCC3(CCNC3=O)CC2)c1C(F)(F)F` [Compound 44, 8-[2-Amino-5-(3-amino-1H-indazol-6-yl)-3-trifluoro-methyl-pyridin-4-yl]-2,8-diaza-spiro[4.5] decan-1-one]: it took 0.27 µM to reach half-maximal inhibition in the data set on Wnt pathway (IC50). Moreover, the microsomal CLint at 0.8 μM in data set [1] fell in the range of 10 to 50 µL/min/mg.

In turn, `CN1c2ccc(-c3cnc(N)c(Cl)c3N3CCC4(CC3)NCCNC4=O)cc2CS1(=O)=O` [Compound 46, 9-[2-Amino-3-chloro-5-(1-methyl-2,2-dioxo-2,3-dihydro-1H-2I6-benzo[c]isothiazol-5-yl)-pyridin-4-yl]-1,4,9-triaza-spiro[5.5] undecan-5-one] registered an IC50 in the data set with Wnt pathway of 0.15 µM. Moreover, in data set [1], the intrinsic clearance (microsomal CLint) at 0.8 μM lay within 50 to 100 µL/min/mg.

Consider `Cn1ncc2cc(-c3cnc(N)c(C(F)(F)F)c3N3CCC(C(N)=O)CC3)ccc21` [Compound 47, 2′-Amino-5′-(1-methyl-1H-indazol-5-yl)-3′-trifluoromethyl-3,4,5,6-tetrahydro-2H-[1,4′] bipyridinyl-4-carboxylic acid amide], for which, in the data set with Wnt pathway, 0.11 µM corresponded to half-maximal inhibition (IC50). Also, in data set [1], the microsomal CLint at 0.8 μM is 50 to 100 µL/min/mg.

In the data set with Wnt pathway, `Cn1ncc2cc(-c3cnc(N)c(C(F)(F)F)c3N3CCC4(CC3)CC(=O)NC4=O)ccc21` [Compound 49, 8-[2-Amino-5-(1-methyl-1H-indazol-5-yl)-3-trifluoromethyl-pyridin-4-yl]-2,8-diaza-spiro[4.5] decane-1,3-dione] yielded an IC50 of 0.004 µM. Moreover, the microsomal CLint at 0.8 μM in data set [1] lay in the range of 10 to 50 µL/min/mg.

In the data set on Wnt pathway, `CN1C(=O)Cc2ccc(-c3cnc(N)c(C(F)(F)F)c3N3CCC4(CCNC4=O)CC3)cc21` [Compound 50, 8-[2-Amino-5-(1-methyl-2-oxo-2,3-dihydro-1H-indol-6-yl)-3-trifluoromethyl-pyridin-4-yl]-2,8-diaza-spiro[4.5] decan-1-one] came in with an IC50 of 0.817 µM. For the same molecule, the intrinsic metabolic clearance (microsomal CLint) at 0.8 μM in data set [1] fell in the range of 10 to 50 µL/min/mg.

In the data set on Wnt pathway, `CN1C(=O)Cc2cc(-c3cnc(N)c(C(F)(F)F)c3N3CCC4(CCNC4=O)CC3)ccc21` [Compound 51, 8-[2-Amino-5-(1-methyl-2-oxo-2,3-dihydro-1H-indol-5-yl)-3-trifluoromethyl-pyridin-4-yl]-2,8-diaza-spiro[4.5] decan-1-one] displayed an IC50 of 0.455 µM. Further, in data set [1], the intrinsic clearance (microsomal CLint) at 0.8 μM fell in the range of 10 to 50 µL/min/mg.

In the data set on Wnt pathway, `Cn1cc(-c2ccc(-c3cnc(N)c(C(F)(F)F)c3N3CCC4(CC3)CC(=O)NC4=O)cc2)cn1` [Compound 52, 8-{2-Amino-5-[4-(1-methyl-1H-pyrazol-4-yl)-phenyl]-3-trifluoromethyl-pyridin-4-yl}-2,8-diaza-spiro[4.5] decane-1,3-dione] showed an IC50 of 0.0012 µM. Also, the microsomal CLint at 0.8 μM in data set [1] was 10 to 50 µL/min/mg.

Consider `CN1c2ccc(-c3cnc(N)c(C(F)(F)F)c3N3CCC4(CCNC4=O)CC3)cc2CS1(=O)=O` [Compound 53, 8-[2-Amino-5-(1-methyl-2,2-dioxo-2,3-dihydro-1H-2I6-benzo[c]isothiazol-5-yl)-3-trifluoro-methyl-pyridin-4-yl]-2,8-diaza-spiro[4.5] decan-1-one], for which, in the data set with Wnt pathway, the midpoint of inhibition, the IC50, lay at 0.00829 µM. The microsomal CLint at 0.8 μM in data set [1] was in the range of 50 to 100 µL/min/mg.

Molecule `CC(C)n1cc(-c2ccc(-c3cnc(N)c(C(F)(F)F)c3N3CCC4(CC3)CNC(=O)O4)cc2)cn1` [Compound 54, 8-{2-Amino-5-[4-(1-isopropyl-1H-pyrazol-4-yl)-phenyl]-3-trifluoro-methyl-pyridin-4-yl}-1-oxa-3,8-diaza-spiro[4.5] decan-2-one] displayed an IC50 in the data set with Wnt pathway of 0.088 µM. Moreover, in data set [1], the microsomal CLint at 0.8 μM fell in the range of 10 to 50 µL/min/mg.

Consider `CC(C)n1cc(-c2ccc(-c3cnc(N)c(Cl)c3N3CCC4(CC3)CNC(=O)O4)cc2)cn1` [Compound 55, 8-{2-Amino-3-chloro-5-[4-(1-isopropyl-1H-pyrazol-4-yl)-phenyl]-pyridin-4-yl}-1-oxa-3,8-diaza-spiro[4.5] decan-2-one], for which, in the data set on Wnt pathway, the midpoint of inhibition, the IC50, lay at 0.17 µM. Also, the intrinsic clearance (microsomal CLint) at 0.8 μM in data set [1] lay within 10 to 50 µL/min/mg.

As to `CCN1c2ccc(-c3cnc(N)c(Cl)c3N3CCC4(CCNC4=O)CC3)cc2CS1(=O)=O` [Compound 58, 8-[2-Amino-3-chloro-5-(1-ethyl-2,2-dioxo-2,3-dihydro-1H-2I6-benzo[c]isothiazol-5-yl)-pyridin-4-yl]-2,8-diaza-spiro[4.5] decan-1-one], the IC50 in the data set on Wnt pathway worked out at 0.0076 µM. In addition, in data set [1], the microsomal CLint at 0.8 μM is at least 150 µL/min/mg.

In turn, `CS(=O)(=O)CCn1cc(-c2ccc(-c3cnc(N)c(Cl)c3N3CCC4(CCNC4=O)CC3)cc2)cn1` [Compound 59, 8-(2-Amino-3-chloro-5-{4-[1-(2-methanesulfonyl-ethyl)-1H-pyrazol-4-yl]-phenyl}-pyridin-4-yl)-2,8-diaza-spiro[4.5] decan-1-one] showed an IC50 with Wnt pathway of 0.045 µM. In addition, in data set [1], the microsomal CLint at 0.8 μM lay within 10 to 50 µL/min/mg.

In the data set on Wnt pathway, `CN1c2ccc(-c3cnc(N)c(F)c3N3CCC4(CC3)CNC(=O)O4)cc2CS1(=O)=O` [Compound 60, 8-[2-Amino-3-fluoro-5-(1-methyl-2,2-dioxo-2,3-dihydro-1H-2l6-benzo[c]isothiazol-5-yl)-pyridin-4-yl]-1-oxa-3,8-diaza-spiro[4.5]decan-2-one] gave an IC50 of 0.103 µM. Further, in data set [1], the microsomal CLint at 0.8 μM is below 10 µL/min/mg.

As to `CN1c2ccc(-c3cnc(N)c(F)c3N3CCC4(CCNC4=O)CC3)cc2CS1(=O)=O` [Compound 61, 8-[2-Amino-3-fluoro-5-(1-methyl-2,2-dioxo-2,3-dihydro-1H-2l6-benzo[c]isothiazol-5-yl)-pyridin-4-yl]-2,8-diaza-spiro[4.5]decan-1-one], in the data set with Wnt pathway, half-maximal inhibition (IC50) was put at 0.0601 µM. In addition, the microsomal CLint at 0.8 μM in data set [1] was 10 to 50 µL/min/mg.
